# Laboratory results taken from PubChem BioAssay AID1996.
# Conditions: buffer; pH 7.4; 200.0 µM
row,solubility kinetic [µg/mL],SMILES
1,> 45.8,c1ccc(CN2CCN(Cc3c[nH]c4ccccc34)CC2)cc1
2,> 47.3,CCC(C)c1ccccc1NC(=O)C(C)OC(=O)c1ccco1 (stereo not drawn)
3,37.2,Cc1cc(F)ccc1NC(=S)NC1CCCC1
4,> 50,CC(Sc1ccccc1F)C(=O)Nc1ccc2c(c1)OCCO2 (stereo not drawn)
5,15.4,CCCCNC(=O)c1cc2cc(OC)ccc2[nH]1
6,32.4,N#Cc1ccc(COc2cccc3cccnc23)cc1
7,> 49,COc1cccc(S(=O)(=O)NCC(=O)N2CCCCCC2)c1
8,25.2,CCOc1ccccc1NC(=O)Cn1c(=O)oc2ccccc21
9,> 58.3,Cn1c(SCC(=O)NCC2COc3ccccc3O2)nnc1C(F)(F)F (stereo not drawn)
10,6.4,CSC(=Nc1ccccc1)Nc1ccccc1
11,> 45.2,CSc1ncc(C(=O)Nc2ccc(C(C)=O)cc2)c(C)n1
12,5.3,CCOC(=O)C1=C(c2ccccc2)NC(=S)NC1c1ccc(Cl)cc1 (stereo not drawn)
13,> 46,CC1CN(C(=O)CNC(=O)COc2ccccc2)CC(C)O1 (stereo not drawn)
14,< 0.2,CCCCN(CCO)c1ncnc2sc(-c3ccccc3)cc12
15,14.5,CCCCN(C)C(=O)c1cc2cc3ccc(OC)cc3nc2o1
16,> 40.2,Cc1ccc(S(N)(=O)=O)c(C)c1N1CCCC1=O
17,4.1,CCOCCCNC(=O)c1cc2c(=O)n3cccc(C)c3nc2s1
18,> 51.4,Cc1nc(N2CCN(Cc3ccc4c(c3)OCO4)CC2)[nH]c(=O)c1C
19,< 0.2,Cc1ccc(C)c2nc(Cl)c(C#N)cc12
20,36.8,COc1ccc(C(=O)O)cc1NCc1cccnc1
21,< 0.2,Cc1ccc(C(=O)O/N=C(\N)c2ccccn2)cc1Cl
22,> 67.9,CCN(C(=O)CSc1nnc(-c2ccc(OC)cc2)n1C(C)C)C1CCS(=O)(=O)C1 (stereo not drawn)
23,5.8,Cc1ccc2[nH]c3ccccc3c(=O)c2c1
24,> 51.4,CC(=O)C1=C(c2ccccc2)NC(=O)NC1c1ccc(O)c(Cl)c1 (stereo not drawn)

row,solubility kinetic [µg/mL],SMILES
1,> 42.4,Cc1ccc(C(=O)NCCN2CCOCC2)c(Cl)c1
2,20.1,Cc1ccc(CNC(=O)C2COc3ccccc3O2)cc1 (stereo not drawn)
3,3,Cc1ccc(OC(C)C(=O)N2CC(=O)Nc3ccccc32)c(C)c1 (stereo not drawn)
4,10.9,Cc1nc(SCCc2ccccc2)[nH]c(=O)c1C
5,> 47.5,O=C(CCNS(=O)(=O)c1ccc(Cl)cc1)N1CCCC1
6,0.6,Cc1cccc(/C=C/c2nc3ccccc3c(=O)[nH]2)c1
7,> 61.9,COc1ccc(C(=O)Nc2ccc(C(=O)N3CCCCC3C)cc2)c(OC)c1OC (stereo not drawn)
8,55.4,NC(=O)C1CCN(C(=O)c2ccc(Oc3cc(Cl)cc(Cl)c3)o2)CC1
9,> 43.9,CCOc1ccc(S(=O)(=O)NCc2cccnc2)cc1
10,22.2,COc1cccc(NC(=O)c2cc3ccccc3o/c2=N\O)c1
11,> 49.4,CCCC(C)NC(=O)CN1C(=O)NC2(CCc3ccccc32)C1=O (stereo not drawn)
12,< 0.4,Cc1cccc(NC(=O)c2cc3c(s2)-c2c(C)cccc2OC3)n1
13,24.7,COc1ccc(OC)c(N2C(=O)CCCC2=O)c1
14,41.3,CCN(Cc1cc(=O)[nH]c2ccccc12)C(=O)c1ccc(C)cc1
15,32.9,CC(OC(=O)c1ccc(Cl)cc1O)C(=O)NCCC1=CCCCC1 (stereo not drawn)
16,> 50.5,COC(=O)C(NC(=O)C(C)NC(=O)OCc1ccccc1)C(C)C (stereo not drawn)
17,32.7,CCC(CC)C(=O)NCc1ccc(OC)cc1
18,> 31.4,O=C(c1ccccc1F)N1CCOCC1
19,4.9,CCOc1ccc(N2C(=O)CC(Cc3ccccc3OC)C2=O)cc1 (stereo not drawn)
20,2.7,CC1CC(=O)Nc2ccccc2N1S(=O)(=O)c1ccc(C#N)cc1 (stereo not drawn)
21,10.9,COc1ccc(OC)c(NC(=O)CCc2c[nH]c3ccccc23)c1
22,42.2,COCC1CCCN(C(=O)c2ccc3oc(C(C)C)nc3c2)C1 (stereo not drawn)
23,> 33.3,Cc1cc(C(=O)N2C(C)CCCC2C)no1 (stereo not drawn)

row,SMILES,solubility kinetic [µg/mL]
1,O=C1C(Cl)=CC(=Nc2ccc([O-])cc2)C=C1Cl.[Na+],> 43.5
